Source: patent publication US20070010401A1, “Synergistic combination of a glyphosate herbicide and a triazole fungicide” (Cheminova A/S, priority 2005, published 2007)

Columns and labels:
Phakopsora pachyrhizi [1] = assay: Protective treatment of glyphosate resistant soybean plants three days prior to inoculation with soybean rust; format: in vivo; details: treated 3 days prior to inoculation, assessed four weeks after inoculation
Text: (§1) In the Colby method, also referred to as the Limpels method, the action to be expected (E) for a given active ingredient combination obeys the so-called Colby formula. According to Colby, the expected (additive) action of active ingredients I+II using p+q ppm of active ingredient is: [formula] where ppm equals the milligrams of active ingredient (=a.i.) per liter of spray mixture; X equals the % action by component (a) using p ppm of active ingredient; Y equals the % action by component (b) using q ppm of active ingredient. If the action actually observed (O) is greater than the expected action (E), then the action of the combination is superadditive, i.e. there is a synergistic effect. For a more detailed description of the Colby formula, see Colby, S. R. “Calculating synergistic and antagonistic responses of herbicide combination,” Weeds, Vol. 15, pages 20-22; (1967); see also Limpel et al., Proc. NEWCC 16: 48-53 (1962), both of which are herein incorporated by reference in their entirety.
Protective Treatment. […] Four weeks after inoculation, disease incidence and severity is determined on the first trifoliate. […]

Phakopsora pachyrhizi [2] = assay: Curative treatment of glyphosate resistant soybean plants three days after inoculation with soybean rust; format: in vivo; details: treated 3 days after inoculation, assessed four weeks after inoculation
Text: as §1
Curative treatment. […] Four weeks after inoculation, disease incidence and severity is determined on the first trifoliate. […]

| SMILES | Observed control (O) % (Phakopsora pachyrhizi [1]; 30 g AI/hectare) | Observed control (O) % (Phakopsora pachyrhizi [2]; 30 g AI/hectare) | Observed control (O) % (Phakopsora pachyrhizi [1]; 100 g AI/hectare) | Observed control (O) % (Phakopsora pachyrhizi [2]; 100 g AI/hectare) |
| --- | --- | --- | --- | --- |
| OC(Cn1cncn1)(c1ccc(F)cc1)c1ccccc1F (stereo not shown) [Flutriafol, flutriafol] | 11% | 39% |  |  |
| O=C(O)CNCP(=O)(O)O [Glyphosate (acid), N-(phosphonomethyl)glycine] |  |  | 82% | 27% |
